From patent US8987198B2, “Compositions and methods for treating obesity and diabetes” (The Administrators of the Tulane Educational Fund, priority 2009, dated 2015)

Assays:
[1] = tested on: Liver X Receptor in LNCaP Cells; assay: Up-regulation of LXR-responsive genes ABCG1/ABCA1 in LNCaP cells; type: cell-based; conditions: glyceollin at 5 μM for 48 h
Description: LNCaP cells were obtained from the American Type Culture Collection (Manassas, Va.) and maintained in Media A [RPMI 1640 medium with phenol red (Invitrogen, Carlsbad, Calif.), 2 mM L-glutamine (Sigma), 100 U/mL penicillin and 100 μg/mL streptomycin (BioSource International, Camarillo, Calif.) with 10% fetal bovine serum (FBS) (Invitrogen, Carlsbad, Calif.)]. Cells were incubated in the presence of 5% CO2 in air at 37° C.

[2] = tested on: 3T3-L1 differentiated adipocytes; assay: [3H]2-deoxyglucose uptake assay in 3T3-L1 adipocytes; type: cell-based, murine; conditions: for glucose uptake after addition of insulin: 0.3 nM insulin + glyceollin; for glucose uptake after addition of insulin / glucose uptake in the absence of insulin: FIG. 17; for glucose uptake in the absence of insulin: 24 h KRH, then 30 min exposure; for insulin-mediated glucose uptake after pre-incubation with glyceollins: 24 hours pre-incubation, 30 min insulin, FIG. 15
Description: Krebs-Ringers-Hepes (KRH) buffer was prepared with 200 mL H2O, 300 μL of 1 M CaCl2, 300 μL of 1.2 M MgSO4, 300 μL of 1 M KH2PO4, 3 mL of 0.14 M KCl, 6 mL of 1 M HEPES in 1.2 M NaHCO3, and 15 mL of 2.6 M NaCl. […] Insulin (MW=5808) stock solution (100 μM) was prepared by dissolving 2.90 mg insulin into 5 mL of 0.01 N HCl. To make working solutions: the stock solution was diluted 1:10 by adding 100 μL stock to 900 μL KRH buffer, giving solution A (10 μM); solution A was diluted by adding 400 μL of solution A to 932 μL KRH buffer, giving solution B (3 μM); solution A was diluted by adding 100 μL of solution A to 900 μL KRH buffer, giving solution C (1 μM); solution B was diluted by adding 100 μL of solution B to 900 μL KRH buffer, giving solution D (300 nM); solution C was diluted by adding 100 μL of solution C to 900 μL KRH buffer, giving solution E (100 nM); solution D was diluted by adding 100 μL of solution D to 900 μL KRH buffer, giving solution F (30 nM); solution E was diluted by adding 100 μL of solution E to 900 μL KRH buffer, giving solution G (10 nM); solution F was diluted by adding 100 μL of solution F to 900 μL KRH buffer, giving solution H (3 nM); solution G was diluted by adding 100 μL of solution G to 900 μL KRH buffer, giving solution I (1 nM); and solution H was diluted by adding 100 μL of solution H to 900 μL KRH buffer, giving solution J (0.3 nM). 100 μL of each concentration was added to each well with a final volume in each well of 1000 μL (1:10 dilution when added to cells). […] This stock solution was kept refrigerated. To make working solutions: 80 μL of the stock solution was diluted with 3920 μL KRH buffer, giving solution A (200 μM); solution A was diluted by adding 500 μL of solution A to 335 μL KRH buffer, giving solution B (120 μM); solution A was diluted by adding 1000 μL of solution A to 1000 μL KRH buffer, giving solution C (100 μM); solution A was diluted by adding 1000 μL of solution A to 1500 μL KRH buffer, giving solution D (80 μM); solution A was diluted by adding 1000 μL of solution A to 2330 μL KRH buffer, giving solution E (60 μM); solution D was diluted by adding 1000 μL of solution D to 1000 μL KRH buffer, giving solution F (40 μM); solution F was diluted by adding 1000 μL of solution F to 1000 μL KRH buffer, giving solution G (20 μM); solution G was diluted by adding 1000 μL of solution G to 1000 μL KRH buffer, giving solution H (10 μM); and solution H was diluted by adding 1000 μL of solution H to 1000 μL KRH buffer, giving solution I (5 μM). 100 μL of each concentration was added to each well with a final volume in each well of 1000 μL (1:10 dilution when added to cells). Unless indicated otherwise (see, e.g., EXAMPLES 14 & 15), where the EXAMPLES below refer to glyceollin, a mixture of glyceollins I, II, and III, was used. Cell culture and differentiation of murine 3T3-L1 cells is a well-accepted model for study of adipocyte differentiation, glucose uptake, and insulin action. These cells undergo a program of differentiation manifest by large lipid droplet accumulation when stimulated by the appropriate hormonal cocktail. The adipocytes express markers such as leptin and adiponectin, express Glut 4, and respond to insulin stimulation by increasing glucose uptake, similar to primary adipocytes. For these experiments, frozen preadipocytes were purchased from Zenbio (Research Triangle Park, N.C.). They were thawed at 37° C., diluted with Zenbio Preadipocyte medium, and incubated in 24-well plates at 37° C. in a humidified atmosphere containing 95% air and 5% CO2 until confluent. Signals derived from confluency were allowed by incubating for 2 more days. Preadipocyte medium was replaced with Zenbio Differentiation Medium and the cells were incubated for 3 additional days; that medium was replaced with Zenbio Adipocyte […] medium for about 2 weeks when greater than 95% of the cells appeared filled with large lipid droplets. […]

Compound | glucose uptake after addition of insulin [2] | glucose uptake in the absence of insulin [2] | insulin-mediated glucose uptake after pre-incubation with glyceollins [2] | also measured
O=c1c(-c2ccc(O)cc2)coc2cc(O)cc(O)c12 [Genistein, genistein] | – | – | – | fold up-regulation of ABCG1 [1]: 3 fold
C=C(C)[C@@H]1Cc2cc3c(cc2O1)OC[C@@]1(O)c2ccc(O)cc2O[C@@H]31 [glyceollin III] | further enhanced | can stimulate glucose uptake in the absence of insulin | more effective than glyceollin II | –
CC1(C)C=Cc2c(ccc3c2OC[C@@]2(O)c4ccc(O)cc4O[C@@H]32)O1 [glyceollin I] | further enhanced | can stimulate glucose uptake in the absence of insulin | more effective than glyceollin II | glucose uptake after 30 minute exposure ([2]; 5 μM, cells pre-incubated 24 h with KRH, FIG. 16): stimulate glucose uptake better than glyceollins II and III
Oc1ccc2c(c1)OC[C@@]1(O)c3ccc(O)cc3O[C@@H]21 [glycinol, reference compound] | – | – | – | glucose uptake after 30 minute exposure to glycinol ([2]; 1 μM and 0.1 μM, absence of insulin, FIG. 16 columns 7 and 8): does not present the same bioactivity as glyceollin; glucose uptake with glycinol ([2]; 5 μM glycinol, 24 h pre-incubation, with or without insulin, FIG. 14): ineffective at stimulating glucose uptake
insulin [reference compound] | – | – | – | glucose uptake by insulin alone ([2]; 0.2 nM insulin, FIG. 19 column 2): stimulation of glucose uptake
